Data reported in patent US5294605A, “Amphiphilic peptide compositions and analogues thereof” (The Scripps Research Institute, priority 1991, dated 1994).
Like-named read-outs stand apart in the source and are kept apart here. Square brackets hold non-standard residues; d marks the D form. Ends that are not written are not given here. Met(O) = CS(=O)CC[C@H](N)C(=O)O

What was measured:
Type in all cases: cell-based
Pseudomonas aeruginosa [1] = conditions: for Min. Inhibitory Concentration P. Aeruginosa: LB medium
Description: (§1) For the following Examples 3-9, antimicrobial assays were carried out in 96-well tissue culture plates. Each well was incubated with a given microorganism (Escherichia coli, Staphylococcus epidermidis, or Pseudomonas aeruginosa) suspended in LB medium. Upon the addition of the parent peptide having the structural formula hereinabove described, or its substitution analogues, or of Peptide I (dissolved in 1 X PBS, pH 7.0) each well contained a final cell density of 1.0×10^6 colony forming units (CFU)/ml. The final peptide concentrations ranged from 1.5 μg/ml to greater than 100 μg/ml.
(§2) Addition of peptides to the wells was defined as time zero. At twenty hours, the plates were placed in a Titertek Multiskan apparatus and the O.D.620 determined. The plates as well as the initial innoculum were incubated at 37° C.
(§3) Five wells per plate contained media alone, while five others contained medium plus cells. These controls were used to eliminate the possibility of media contamination while providing a measure of uninhibited growth of the microorganisms.
(§4) The degree of peptide activity was determined by comparing the substitution analogues with uninhibited growth of the control cells over a twenty-hour period.
(§5) as hereinabove described and analogues thereof wherein a methionine sulfoxide residue was substituted for various amino acid residues of the parent peptide were prepared as hereinabove described in Example 1 and tested for minimum inhibitory concentration with respect to E. coli, P. aeruginosa, and S. epidermidis at a concentration given in μg/ml, and for percent hemolysis of human red blood cells as hereinabove described in Example 2. The minimum inhibitory concentration and percent hemolysis (at a concentration of 100 μg/ml) are listed below in Table I. As used herein, the heading "Amino Acid Residue Substituted" refers to the number of the amino acid residue in the peptide which is substituted with a desired amino acid residue. All other residues remain the same as that of the normal peptide sequence. The term "Minimum Inhibitory Concentration" (MIC) as used herein indicates the minimum concentration of peptide in μg/ml needed to achieve 100 percent effective growth inhibition of the organism.

Escherichia coli [2] = conditions: for Min. Inhibitory Concentration E. Coli: LB medium
Description: as §1, §2, §3, §4, §5

[3] = tested on: Staphylococcus epidermidis; assay: Antimicrobial assay in 96-well plates, LB medium (Example 2), MIC; conditions: for Min. Inhibitory Concentration S. epidemidia: Table VI, methionine sulfoxide diastereomer fractions
[4] = tested on: Staphylococcus epidermidis; assay: Antimicrobial assay for deletion analogues (Example 10), MIC; conditions: Table VII; 3.0×10^5 CFU/ml, 20 hours, LB medium
Description: (§6) For the deletion analogues of the parent peptide further described in Examples 11 and 12, antimicrobial assays were carried out in 96-well tissue culture plates. Each well was incubated with a given microorganism (Escherichia coli, Staphylococcus epidermidis, Pseudomonas aeruginosa, or Staphylococcus aureus) suspended in LB medium. Upon addition of the parent peptide or its deletion analogues (dissolved in 1×PBS<pH7.0), each well contained a final cell density of 1.3×10^5 colony forming units (CFU)/ml of E. coli, or 3.5×10^5 CFU/ml P.aeruginosa, or 3.9×10^5 CFU/ml S. Aureus or 3.0×10^5 CFU/ml S. epidermidis. The final peptide concentrations ranged from 1.5 μg/ml to greater than 100 μg/ml. Addition of peptide to the wells was defined as time zero. At twenty hours, the plates were placed in a Titertek Multiskan apparatus and the O.D. 620 determined. The plates as well as the initial innoculum were incubated at 37° C. Five wells per plate contained medium alone, whereas five others contained medium plus cells. These controls were used to eliminate the possibility of medium contamination, while providing a measure of uninhibited growth of the microorganisms. The degree of peptide activity was determined by comparing the deletion analogues with uninhibited growth of the control cells over a twenty-hour period. The effective growth inhibitation of the deletion analogues is listed in the examples and tables below.

Pseudomonas aeruginosa [5] = assay: as above; conditions: Table VII; 3.5×10^5 CFU/ml, 20 hours, LB medium
Description: as §6

Staphylococcus aureus = assay: as above; conditions: Table VII; 3.9×10^5 CFU/ml, 20 hours, LB medium
Description: as §6

Escherichia coli [6] = assay: as above; conditions: Table VII; 1.3×10^5 CFU/ml, 20 hours, LB medium
Description: as §6

[7] = Table VI, methionine sulfoxide diastereomer fractions, 20 hours
[8] = Table II, lysine substitutions, 20 hours
[9] = Table IV, analogues substituted at residues 4 and 11, 20 hours

Row | Substance | Minimum Inhibitory Concentration S. epidermidis [4] [µg/mL] | Minimum Inhibitory Concentration P. Aeruginosa (Pseudomonas aeruginosa [5]) [µg/mL] | Minimum Inhibitory Concentration S. aureus (Staphylococcus aureus) [µg/mL] | Minimum Inhibitory Concentration E. coli (Escherichia coli [6]) [µg/mL] | other results
1 | 7 (SEQ ID NO: 11) 20/80: residue 7 methionine sulfoxide analogue, fraction by proportion of L-methionine-L-/D-sulfoxide (assignment undetermined) (LKLLKK[Met(O)]LKKLKKLLKKL; also: sulfoxide L-/D- 20/80 mixture, assignment undetermined) |  |  |  |  | Min. Inhibitory Concentration P. Aeruginosa (Pseudomonas aeruginosa [1]; [7]): > 5 µg/mL; Min. Inhibitory Concentration E. Coli (Escherichia coli [2]; [7]): 5 µg/mL; Min. Inhibitory Concentration S. epidemidia ([3]; 20 hours): > 10 µg/mL
2 | Ac-LKLLKKLLKLKKLLKKL-NH2 [9 (X(SEQ ID NO: 51) --NH2)] | 4 | 16 | 64 | 8 | 
3 | 11 (SEQ ID NO: 15) 20/80: residue 11 methionine sulfoxide analogue, fraction by proportion of L-methionine-L-/D-sulfoxide (assignment undetermined) (LKLLKKLLKK[Met(O)]KKLLKKL; also: sulfoxide L-/D- 20/80 mixture, assignment undetermined) |  |  |  |  | Min. Inhibitory Concentration P. Aeruginosa (Pseudomonas aeruginosa [1]; [7]): 5 µg/mL; Min. Inhibitory Concentration E. Coli (Escherichia coli [2]; [7]): 10 µg/mL; Min. Inhibitory Concentration S. epidemidia ([3]; 20 hours): 2.5 µg/mL
4 | Ac-LLLKKLLKKLKKLLKKL-NH2 [2 (X(SEQ ID NO: 47) --NH2)] | 4 | 16 to 32 | 32 to 64 | 8 to 16 | 
5 | Ac-LKLLKKLLKKLKKLKKL-NH2 [14 (X(SEQ ID NO: 54) --NH2)] | 2 | 8 | 32 | 8 | 
6 | Ac-KKLLKKLLKKLKKLLKKL-NH2 [1 (SEQ ID NO: 23)] |  |  |  |  | Min. Inhibitory Concentration P. Aeruginosa (Pseudomonas aeruginosa [1]; [8]): 30 µg/mL; Min. Inhibitory Concentration E. Coli (Escherichia coli [2]; [8]): 5 µg/mL; Min. Inhibitory Concentration S. epidermidis [3, 8]: 25 µg/mL
7 | Ac-LKLLKKLLKKLKLLKKL-NH2 [12 (X(SEQ ID NO: 53) --NH2)] | 4 | 8 | 32 | 8 | 
8 | Ac-LKLLKKLKKLKKLLKKL-NH2 [7 (X(SEQ ID NO: 50) --NH2)] | 2 | 4 to 8 | 64 | 4 | 
9 | Ac-LKKLKKLLKKLKKLLKKL-NH2 [3 (SEQ ID NO: 24)] |  |  |  |  | Min. Inhibitory Concentration P. Aeruginosa (Pseudomonas aeruginosa [1]; [8]): 30 µg/mL; Min. Inhibitory Concentration E. Coli (Escherichia coli [2]; [8]): 5 µg/mL; Min. Inhibitory Concentration S. epidermidis [3, 8]: 10 µg/mL
10 | Ac-LKLLKKLLKKLKKLLKK-NH2 [18 (X(SEQ ID NO: 56) --NH2)] | 2 | 8 | 32 | 16 | 
11 | Ac-LKLLKKLLKKKKLLKKL-NH2 [11 (X(SEQ ID NO: 52) --NH2)] | 2 | 8 | 256 | 64 | 
12 | Ac-KLLKKLLKKLKKLLKKL-NH2 [1 (X(SEQ ID NO: 46) --NH2)] | 4 | 16 to 32 | 32 | 16 | 
13 | 4 (SEQ ID NO: 8) 50/50: residue 4 methionine sulfoxide analogue, fraction by proportion of L-methionine-L-/D-sulfoxide (assignment undetermined) (LKL[Met(O)]KKLLKKLKKLLKKL; also: sulfoxide L-/D- 50/50 mixture, assignment undetermined) |  |  |  |  | Min. Inhibitory Concentration P. Aeruginosa (Pseudomonas aeruginosa [1]; [7]): 5 µg/mL; Min. Inhibitory Concentration E. Coli (Escherichia coli [2]; [7]): 10 µg/mL; Min. Inhibitory Concentration S. epidemidia ([3]; 20 hours): 5 µg/mL
14 | Ac-LKLLKKLLKKLKKLLKL-NH2 [16 (X(SEQ ID NO: 55) --NH2)] | 4 | 16 | 32 | 8 | 
15 | Ac-LLKLLKKLLKKLKK [Peptide I] |  |  |  |  | Minimum Inhibitory Concentration against P.aeruginosa (Pseudomonas aeruginosa [1]; 20 h): 5 µg/mL; Minimum Inhibitory Concentration against E.coli (Escherichia coli [2]; 20 h): 10 µg/mL
16 | Ac-LKLLKLLKKLKKLLKKL-NH2 [5 (X(SEQ ID NO: 49) --NH2)] | 2 | 32 | 64 to 128 | 8 | 
17 | Ac-LKLKKKLLKKMKKLLKKL-NH2 [Analogue 8] |  |  |  |  | Min. Inhibitory Concentration P. Aeruginosa (Pseudomonas aeruginosa [1]; [9]): 5 µg/mL; Min. Inhibitory Concentration E. Coli (Escherichia coli [2]; [9]): 5 µg/mL; Min. Inhibitory Concentration S. epidermidis [3, 9]: 5 µg/mL
18 | 4 (SEQ ID NO: 8) 60/40: residue 4 methionine sulfoxide analogue, fraction by proportion of L-methionine-L-/D-sulfoxide (assignment undetermined) (LKL[Met(O)]KKLLKKLKKLLKKL; also: sulfoxide L-/D- 60/40 mixture, assignment undetermined) |  |  |  |  | Min. Inhibitory Concentration P. Aeruginosa (Pseudomonas aeruginosa [1]; [7]): 5 µg/mL; Min. Inhibitory Concentration E. Coli (Escherichia coli [2]; [7]): > 10 µg/mL; Min. Inhibitory Concentration S. epidemidia ([3]; 20 hours): 5 µg/mL
19 | Ac-LKLKKKLLKKLKKLLKKL-NH2 [4 (SEQ ID NO: 25)] |  |  |  |  | Min. Inhibitory Concentration P. Aeruginosa (Pseudomonas aeruginosa [1]; [8]): 30 µg/mL; Min. Inhibitory Concentration E. Coli (Escherichia coli [2]; [8]): 2.5 µg/mL; Min. Inhibitory Concentration S. epidermidis [3, 8]: 5 µg/mL
20 | 11 (SEQ ID NO: 15) 70/30: residue 11 methionine sulfoxide analogue, fraction by proportion of L-methionine-L-/D-sulfoxide (assignment undetermined) (LKLLKKLLKK[Met(O)]KKLLKKL; also: sulfoxide L-/D- 70/30 mixture, assignment undetermined) |  |  |  |  | Min. Inhibitory Concentration P. Aeruginosa (Pseudomonas aeruginosa [1]; [7]): 2.5 µg/mL; Min. Inhibitory Concentration E. Coli (Escherichia coli [2]; [7]): 10 µg/mL; Min. Inhibitory Concentration S. epidemidia ([3]; 20 hours): 2 µg/mL
21 | Ac-LKLKKLLKKLKKLLKKL-NH2 [3 (X(SEQ ID NO: 48) --NH2)] | 4 | 8 | 32 to 64 | 4 | 
